System: sar-BGC (sarD) expression in WT SAL
Assay: sarD transcript levels by qRT-PCR after lactate supplementation of WT SAL
Type: cell-based, Streptococcus salivarius K12
Conditions: WT SAL at late-exponential growth (A600 ~ 2.0), fresh THY with sodium lactate, 15 minutes; relative to WT-LE growth; three biological replicates
Procedure: Fig 2 SAL upregulates sar-BGC expression in concert with environmental acidification. (A) Wild-type (WT) SAL was grown in THY broth, and samples were collected at the indicated time points. Growth medium pH, sar-BGC (sarD) transcript levels, and bacterial growth by absorption at wavelength 600 nm (A600) were determined. Right y-axes represent fold change in sar-BGC transcript levels (green) and A600 (red), whereas the left y-axis represents pH of the growth medium (black). Fold changes in transcript levels at indicated time points relative to starting culture (time point t = 0 h) are shown. Data are mean ± standard deviation for three biological replicates. (B) WT SAL grown in THY to late-exponential growth phase (LE, A600 ~ 2.0) was harvested by centrifugation, suspended in THY broth adjusted to indicated pH, and incubated for 15 minutes. […] P values assessed by t-test analyses relative to WT LE growth are shown (n.s, not significant; *, P < 0.05; ****, P < 0.0001). […]
SAL and other lactic acid bacteria acidify their environment via lactic acid production during their growth. […] After 15 min incubation, cells were collected and sarD transcript levels in each pH were assessed by quantitative real-time PCR (qRT-PCR). […] To test whether lactate acts as a signal for the induction of sar-BGC expression, we assessed sarD transcript levels in SAL grown in the presence of lactate. […]

CC(O)C(=O)[O-].[Na+] (stereo not shown) [lactate, sodium lactate]
induction of sar-BGC expression (sarD transcript levels): did not induce sar-BGC expression

Reference: PMC12186490, “Environmental pH controls antimicrobial production by human probiotic Streptococcus salivarius” (Journal of Bacteriology, 2025)
